Data as given in US11229633B2, “Arimoclomol formulation” (Orphazyme A/S, priority 2014, dated 2022).
Entries after “also recorded” stand apart in the source; their conditions may differ.

Biological target: T1, human OAT3 (Homo sapiens, UniProt Q8TCC7)
T1 construct: expressed in transfected cells; host or cells: MDCKII (protocol UPT-MDCKII-OAT3-E3S; control: parental MDCKII)
T1 sequence (Q8TCC7 1-542): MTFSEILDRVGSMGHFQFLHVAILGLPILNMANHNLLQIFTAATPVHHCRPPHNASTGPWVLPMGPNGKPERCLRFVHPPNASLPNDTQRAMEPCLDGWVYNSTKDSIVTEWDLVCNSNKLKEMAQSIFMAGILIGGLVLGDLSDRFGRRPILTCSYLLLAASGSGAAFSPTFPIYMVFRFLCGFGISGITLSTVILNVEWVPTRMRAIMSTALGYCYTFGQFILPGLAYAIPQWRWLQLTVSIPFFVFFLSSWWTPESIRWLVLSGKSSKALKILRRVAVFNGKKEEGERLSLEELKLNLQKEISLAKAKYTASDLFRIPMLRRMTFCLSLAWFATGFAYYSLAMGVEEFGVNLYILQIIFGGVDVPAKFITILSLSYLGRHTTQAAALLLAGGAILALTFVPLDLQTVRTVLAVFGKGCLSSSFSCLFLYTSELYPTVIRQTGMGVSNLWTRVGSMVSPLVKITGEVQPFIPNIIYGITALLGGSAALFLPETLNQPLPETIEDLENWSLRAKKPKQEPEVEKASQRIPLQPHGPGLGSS
Assay: Uptake transporter inhibition assay, OAT3
Format: in vitro ADME
Set-up: key to maximum inhibition: NIO: No interaction observed
Details: for maximum inhibition: 0.3-300 μM
Protocol: Uptake experiments were performed using CHO, MDCKII, or HEK293 cells stably expressing the respective uptake transporters.
Cells were cultured at 37±1° C. in an atmosphere of 95:5 air:CO2 and were plated onto standard 96-well tissue culture plates at the cell number described in table 4.
Before the experiment, the medium was removed and the cells were washed twice with 100 μl of HK buffer at pH 7.4 (prepared from Sigma chemicals, Sigma-Aldrich, St Louis, Mo.). Uptake experiments were carried out at 37±1° C. in 50 μl of HK buffer (pH 7.4) containing the probe substrate and the TA or vehicle control (water).
After the experiment, cells were washed twice with ice cold, 100 μl of HK buffer and lysed with 50 μl of 0.1 M NaOH (1 mM CaCl2) in 5% SDS in the case of OATP1B3). Fluo-3 transport (OATP1B3) was determined by measuring fluorescence using 485 nm and 520 nm as the excitation and emission wavelengths, respectively. Radiolabelled probe substrate transport was determined by measuring an aliquot (35 μl) from each well for liquid scintillation counting.
Uptake of the probe substrate in control cells provided background activity values for all data points. Incubation without TA or reference inhibitor (solvent only) provided 100% activity values. A reference inhibitor served as positive control for inhibition.
The amount of translocated probe substrate was determined for each well in cpm or RFU. Relative activities were calculated from the equation:
[formula] A: amount of translocated substrate in the presence of TA in transfected cells B: amount of translocated substrate in the presence of TA in control cells C: amount of translocated substrate in the presence of solvent in transfected cells D: amount of translocated substrate in the presence of solvent in control cells Calculation of Fold Accumulation Values
In uptake transporter inhibition assays, the IC50 (μM) was calculated, where applicable. […]

Question: For `[O-][n+]1cccc(C(Cl)=NOCC(O)CN2CCCCC2)c1` (stereo not drawn) [Arimoclomol, N-[2-hydroxy-3-(1-piperidinyl)-propoxy]-pyridine-1-oxide-3-carboximidoyl chloride], which maximum inhibition (Table 2) is on record?
Answer: NIO

Question: What about the maximum inhibition (Table 5) of the same molecule?
Answer: NIO

Question: And the “Influence on OAT3-mediated probe substrate accumulation (in words)” value (applied concentrations)?
Answer: did not influence; also recorded: not an inhibitor
